Values after ≈ are worked out from the molar mass of the structure shown. Where two headings read alike, the source gives them in different places.
How the values were obtained:
P. acnes = assay: Minimum Inhibitory Concentration (MIC) test, 96-well microtiter plate; type: cell-based; settings: for MIC: Cutibacterium acnes
Procedure: (§1) Activities of antimicrobial compositions of the present invention were tested against a range of typical skin microorganisms in a Minimum Inhibitory Concentration (MIC) test. MICs for the organisms were determined in a standard 96-well microtiter plate assay in Brain Heart Infusion Broth (BHI) for P. acnes; Tryptic Soy Broth (TSB) for the remaining bacteria; Ushijima Broth for M. furfur; Sabouraud Dextrose Broth (SDB) for other fungi. Samples were tested in duplicate on separate plates. For bacteria and fungi plates, samples were serially diluted into double strength media on the microtiter plates. The bacterial or fungal inocula, suspended in sterile deionized water, were then added to the wells in 1:1 ratio to the medium. The final concentration of bacteria in the wells was 5×10^5 CFUs/mL, the final concentration of fungi was 5×10^4 cells or spores/mL. Plates were incubated: anaerobically at 35° C. for 7 days for P. acnes; aerobically at 35° C. for 2 days for the remaining bacteria and aerobically at 35° C. for 7 days for M. furfur; aerobically at 28° C. for 7 days for T. mentagrophytes.

E. coli [1] = assay: as above; type: cell-based; settings: Active ZPT alone or plus chelator or chelator + Zn(II); Molar Ratio HBED 10×, 8-HQ 5×, 8-HQ + Zn(II) 1×, 2-HPNO 10×
Procedure: as §1

S. epidermidis = assay: as above; type: cell-based; parameters: unit not given here
Procedure: as §1

T. mentagrophytes = assay: as above; type: cell-based; parameters: unit not given here
Procedure: as §1

P. aeruginosa [2] = assay: as above; type: cell-based; parameters: unit not given here
Procedure: as §1

M. furfur = assay: as above; type: cell-based; parameters: unit not given here
Procedure: as §1

S. aureus = assay: Time-kill test (microbial reduction); type: cell-based; settings: for log reduction: from initial microbial population
Procedure: (§2) Time-kill test were performed to assess microbial reduction by antimicrobial agents, with and without chelators, against S. aureus, P. aeruginosa, and E. coli.
(§3) 100 μL of sample and 100 μL of bacterial suspension at 5×10^5 cells/mL was loaded into the first well of each row in a 96-well plate, mixed and after specific contact time, 10-fold serial dilutions were made using a multichannel pipette by transferring 20 μL into 180 μL of Letheen broth, mixing 10 times. The process was repeated. Thereafter, three replicates of 10 μL from each of the six selected dilutions were plated onto Tryptic Soy Agar using a 2-20 μL monochannel pipette. Plates were allowed to dry, then placed into an incubator at 35° C. for 24 hrs. Colonies (0.5-1 mm) were enumerated using a colony counter.

P. aeruginosa [3] = assay: Time-kill test (microbial reduction); type: cell-based; settings: for log reduction: from initial microbial population
Procedure: as §2, §3

E. coli [4] = assay: Time-kill test (microbial reduction); type: cell-based; settings: E. coil; for log reduction: from initial microbial population
Procedure: as §2, §3

R. subcapitata = assay: Minimum Inhibitory Concentration (MIC) test, 96-well microtiter plate; type: cell-based; parameters: unit not given here
C. pyrenoidosa = assay: as above; type: cell-based; parameters: unit not given here
[5] = system: S. aureus, P. aeruginosa, and E. coli; settings: in combination with ZPT
Procedure: as §2, §3

A. brasiliensis = assay: Minimum Inhibitory Concentration (MIC) test, 96-well microtiter plate; type: cell-based; parameters: unit not given here
Procedure: as §1

B. subtilis = assay: as above; type: cell-based; parameters: unit not given here
Procedure: as §1

A. pullulans = assay: as above; type: cell-based; parameters: unit not given here; settings: concentration of BIT; BIT alone or with potentiator, Molar Eq (Pot:BIT) 10:1
Procedure: as §1

P. faveolarum = assay: as above; type: cell-based; parameters: unit not given here
Procedure: as §1

C. albicans = assay: as above; type: cell-based; parameters: unit not given here; settings: concentration of ZPT; ZPT alone or with potentiator, Molar Eq (Pot:ZPT) 10:1, 8-HQ-Zn 1:1
Procedure: as §1

[6] = Active ZPT alone or plus chelator or chelator + Zn(II), Molar Ratio HBED 10×, 8-HQ 5×, 8-HQ + Zn(II) 1×, 2-HPNO 10×
[7] = concentration of BIT, BIT alone or with potentiator, Molar Eq (Pot:BIT) 10:1
[8] = concentration of ZPT, ZPT alone or with potentiator, Molar Eq (Pot:ZPT) 10:1, 8-HQ-Zn 1:1

Row | Compound | MIC E. Coli (E. coli [1]) | MIC S. epidermidis (S. epidermidis; [6]) | MIC T. mentagrophytes (T. mentagrophytes; [6]) | MIC P. aeruginosa (P. aeruginosa [2]; [6]) | MIC M. furfur (M. furfur; [6]) | CFU (S. aureus; 4 hr contact) | log reduction (S. aureus; 4 hr contact) [log] | CFU (S. aureus; 8 hr contact) | log reduction (S. aureus; 8 hr contact) [log] | CFU (P. aeruginosa [3]; 4 hr contact) | log reduction (P. aeruginosa [3]; 4 hr contact) [log] | CFU (P. aeruginosa [3]; 8 hr contact) | log reduction (P. aeruginosa [3]; 8 hr contact) [log] | CFU (E. coli [4]; 4 hr contact) | log reduction (E. coli [4]; 4 hr contact) [log] | CFU (E. coli [4]; 8 hr contact) | log reduction (E. coli [4]; 8 hr contact) [log] | further results
1 | Oc1cccc2cccnc12 [8-HQ, 8-hydroxyquinoline] | 7.81 | 0.49 | 7.81 | 125 | 1.95 | 1.6 × 10^5 CFUs/mL | 1 | 6.3 × 10^5 CFUs/mL | 2 | 2.6 × 10^6 CFUs/mL | 1 | 3 × 10^5 CFUs/mL | 3 | 8.6 × 10^5 CFUs/mL | 2 | 1.2 × 10^6 CFUs/mL | 2 | MIC (P. acnes; read-out: MIC values against P. acnes, Benzoyl Peroxide): 0.78 µg/mL (≈ 5.37 µM); MIC (P. acnes; read-out: MIC values against P. acnes, Salicylic Acid): 0.78 µg/mL (≈ 5.37 µM)
2 | O=C(O)CN(CCN(CC(=O)O)Cc1ccccc1O)Cc1ccccc1O [HBED, N,N-bis(2-hydroxybenzyl)ethylenediamine-N,N-diacetic acid] | 15.63 | 0.98 | 0.49 | 62.5 | 3.91 | 1.4 × 10^6 CFUs/mL | 1 | 2.3 × 10^5 CFUs/mL | 2 | >10^7 CFUs/mL | 0 | 1.6 × 10^5 CFUs/mL | 3 | 8.3 × 10^5 CFUs/mL | 2 | 1.6 × 10^6 CFUs/mL | 2 | MIC R. subcapitata (R. subcapitata; [7]): 4.06; MIC values against P. acnes, Benzoyl Peroxide (P. acnes; Benzoyl Peroxide without chelator or with chelator, Molar Eq. HBED 10×, 8-HQ 5×, DTPA 10×, Desferrioxamine 1×): 3.13 ppm; MIC values against P. acnes, Salicylic Acid (P. acnes; Salicylic Acid without chelator or with chelator, Molar Eq. HBED 10×, 8-HQ 5×, DTPA 10×, Desferrioxamine 1×): 3.13 ppm; MIC C. pyrenoidsa (C. pyrenoidosa; [7]): 2.03; ranking of chelators in time-kill studies [5]: best chelator; MIC A. brasiliensis (A. brasiliensis; [7]): 32.50; MIC B. subtilis (B. subtilis; [7]): 0.51; MIC P. aeruginosa (P. aeruginosa [2]; [7]): 8.13; MIC A. pullulans (A. pullulans): 4.06; MIC P. faveolarum (P. faveolarum; [7]): 4.06
3 | zinc pyrithione [ZPT] | 1.95-7.81 | 1.95-7.8 | 3.91-5 | 31.25-62.5 | 1.25-1.95 | – | 1 | – | 2 | 7.3 × 10^6 CFUs/mL | 1 | 6.3 × 10^6 CFUs/mL | 2 | >10^7 CFUs/mL | 0 | >10^7 CFUs/mL | 0 | MIC R. subcapitata (R. subcapitata; [8]): 1.95-4; MIC C. pyrenoidsa (C. pyrenoidosa; [8]): 0.24-4; MIC S. epidermidis (S. epidermidis; [8]): 1.95-7.8; MIC A. brasiliensis (A. brasiliensis; [8]): 7.81-15.6; MIC T. mentagrophytes (T. mentagrophytes; [8]): 3.91-8; MIC B. subtilis (B. subtilis; [8]): 1.95-4; MIC P. aeruginosa (P. aeruginosa [2]; [8]): 31-62; MIC M. furfur (M. furfur; [8]): 0.98-4; MIC C. albicans (C. albicans): 7.81; MIC P. faveolarum (P. faveolarum; [8]): 0.05-2

Reference: patent publication US10433548B2, “Biocidal compositions comprising iron chelators” (Arch Chemicals, Inc., priority 2012, dated 2019)
